Measurements as given in ChEMBL document CHEMBL5316263, “Structure-Based Discovery of Selective Histone Deacetylase 8 Degraders with Potent Anticancer Activity” (J Med Chem, 2023).
pIC50: −log10 of the molar value. The source made the active and inactive calls. The rule behind the calls is not given here.

Experiments:
A549 [1] = assay: Antiproliferative activity against human A549 cells assessed as inhibition of cell growth measured after 72 hrs under irradiation by CCK-8 method; assay type: functional, cell-based; details: A549, light or radiation study
A549 [2] = assay: Downregulation of HSPA6 in human A549 cells measured after 20 hrs by proteomic analysis; assay type: functional, cell-based
A549 [3] = assay: Induction of apoptosis in human A549 cells assessed as viable cells at 5 uM by annexin V-FITC staining based flow cytometry (reference value: 100%); assay type: functional; details: read-out: Activity
[4] = target: Protein cereblon/Protein deacetylase HDAC6 (Homo sapiens) (UniProt Q9UBN7+Q96SW2); assay: Protac activity at CRBN/HDAC6 in human A549 cells assessed as reduction in HDAC6 protein level at 0.1 to 10 uM by Western blot analysis; assay type: cell-based; details: dose 0.1-10 µM
Protein cereblon/Protein deacetylase HDAC6 (Homo sapiens), sequence (Q96SW2 whole entry, looked up): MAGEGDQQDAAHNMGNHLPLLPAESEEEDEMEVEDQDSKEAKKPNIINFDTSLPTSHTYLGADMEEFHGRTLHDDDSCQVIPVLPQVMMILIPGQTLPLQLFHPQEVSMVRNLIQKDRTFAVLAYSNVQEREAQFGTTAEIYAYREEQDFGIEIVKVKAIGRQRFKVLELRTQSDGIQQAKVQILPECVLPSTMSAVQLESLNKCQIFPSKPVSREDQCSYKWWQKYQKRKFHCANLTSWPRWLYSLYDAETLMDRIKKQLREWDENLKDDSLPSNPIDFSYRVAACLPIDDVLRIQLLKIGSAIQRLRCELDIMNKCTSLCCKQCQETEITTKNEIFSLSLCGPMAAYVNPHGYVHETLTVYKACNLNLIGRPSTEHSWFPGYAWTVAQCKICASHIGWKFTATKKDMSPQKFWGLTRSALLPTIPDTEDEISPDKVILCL
Protein cereblon/Protein deacetylase HDAC6 (Homo sapiens), sequence (Q9UBN7 whole entry, looked up): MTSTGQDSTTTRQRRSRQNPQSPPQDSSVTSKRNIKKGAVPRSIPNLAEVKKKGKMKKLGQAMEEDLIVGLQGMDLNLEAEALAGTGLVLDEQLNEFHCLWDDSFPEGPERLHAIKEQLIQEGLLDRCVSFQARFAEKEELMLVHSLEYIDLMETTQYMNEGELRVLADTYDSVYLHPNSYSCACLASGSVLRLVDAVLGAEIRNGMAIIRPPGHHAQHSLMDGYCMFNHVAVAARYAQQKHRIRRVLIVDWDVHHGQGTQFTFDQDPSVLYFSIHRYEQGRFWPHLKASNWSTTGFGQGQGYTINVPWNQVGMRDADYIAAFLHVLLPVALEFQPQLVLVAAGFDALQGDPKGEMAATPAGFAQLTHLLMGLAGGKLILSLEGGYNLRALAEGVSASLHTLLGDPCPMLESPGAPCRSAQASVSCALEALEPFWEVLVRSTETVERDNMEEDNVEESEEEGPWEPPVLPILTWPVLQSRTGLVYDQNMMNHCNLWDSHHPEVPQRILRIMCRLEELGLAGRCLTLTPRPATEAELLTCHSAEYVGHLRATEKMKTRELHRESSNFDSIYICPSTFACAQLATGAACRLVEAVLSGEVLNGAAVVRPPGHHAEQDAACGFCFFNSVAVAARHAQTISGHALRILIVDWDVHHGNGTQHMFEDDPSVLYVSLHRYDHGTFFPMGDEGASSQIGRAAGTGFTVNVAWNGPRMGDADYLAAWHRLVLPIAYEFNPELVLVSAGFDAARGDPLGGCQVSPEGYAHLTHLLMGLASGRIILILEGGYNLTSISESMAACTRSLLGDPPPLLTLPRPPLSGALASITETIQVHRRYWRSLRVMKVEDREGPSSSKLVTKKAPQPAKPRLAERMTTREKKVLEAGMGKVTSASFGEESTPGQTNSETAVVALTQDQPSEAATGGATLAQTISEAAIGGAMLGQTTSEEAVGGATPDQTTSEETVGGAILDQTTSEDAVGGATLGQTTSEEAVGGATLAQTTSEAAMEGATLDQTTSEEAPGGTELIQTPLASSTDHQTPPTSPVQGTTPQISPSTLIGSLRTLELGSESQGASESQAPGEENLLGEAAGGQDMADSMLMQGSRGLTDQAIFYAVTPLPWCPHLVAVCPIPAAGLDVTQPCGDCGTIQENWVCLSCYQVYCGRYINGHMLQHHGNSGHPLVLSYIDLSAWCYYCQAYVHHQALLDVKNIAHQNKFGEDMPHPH

[5] = target: Protein cereblon/Histone deacetylase 3 (Homo sapiens) (UniProt O15379+Q96SW2); assay: Protac activity at CRBN/HDAC3 in human A549 cells assessed as reduction in HDAC3 protein level at 0.1 to 10 uM by Western blot analysis; assay type: cell-based; details: dose 0.1-10 µM
Protein cereblon/Histone deacetylase 3 (Homo sapiens), sequence (O15379 whole entry, looked up): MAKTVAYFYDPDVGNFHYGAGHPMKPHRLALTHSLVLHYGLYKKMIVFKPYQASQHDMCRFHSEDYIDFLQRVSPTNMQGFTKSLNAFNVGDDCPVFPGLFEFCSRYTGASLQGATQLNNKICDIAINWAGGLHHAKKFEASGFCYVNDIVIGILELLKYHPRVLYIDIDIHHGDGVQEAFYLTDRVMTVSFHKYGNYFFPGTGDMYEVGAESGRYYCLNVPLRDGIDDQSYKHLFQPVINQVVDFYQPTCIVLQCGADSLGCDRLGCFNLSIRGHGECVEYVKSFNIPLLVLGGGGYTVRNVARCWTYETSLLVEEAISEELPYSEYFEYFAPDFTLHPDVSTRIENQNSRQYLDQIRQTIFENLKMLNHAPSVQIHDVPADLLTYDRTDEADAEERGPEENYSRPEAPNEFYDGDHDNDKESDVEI
Protein cereblon/Histone deacetylase 3 (Homo sapiens), sequence (Q96SW2 whole entry, looked up): as the sequence (Q96SW2 whole entry, looked up) above

[6] = target: Protein cereblon/Histone deacetylase 9 (Homo sapiens) (UniProt Q9UKV0+Q96SW2); assay: Protac activity at CRBN/HDAC9 in human A549 cells assessed as degradation of HDAC9 at 0.1 to 10 uM by Western blot analysis; assay type: cell-based; details: dose 0.1-10 µM
Protein cereblon/Histone deacetylase 9 (Homo sapiens), sequence (Q96SW2 whole entry, looked up): as above
Protein cereblon/Histone deacetylase 9 (Homo sapiens), sequence (Q9UKV0 whole entry, looked up): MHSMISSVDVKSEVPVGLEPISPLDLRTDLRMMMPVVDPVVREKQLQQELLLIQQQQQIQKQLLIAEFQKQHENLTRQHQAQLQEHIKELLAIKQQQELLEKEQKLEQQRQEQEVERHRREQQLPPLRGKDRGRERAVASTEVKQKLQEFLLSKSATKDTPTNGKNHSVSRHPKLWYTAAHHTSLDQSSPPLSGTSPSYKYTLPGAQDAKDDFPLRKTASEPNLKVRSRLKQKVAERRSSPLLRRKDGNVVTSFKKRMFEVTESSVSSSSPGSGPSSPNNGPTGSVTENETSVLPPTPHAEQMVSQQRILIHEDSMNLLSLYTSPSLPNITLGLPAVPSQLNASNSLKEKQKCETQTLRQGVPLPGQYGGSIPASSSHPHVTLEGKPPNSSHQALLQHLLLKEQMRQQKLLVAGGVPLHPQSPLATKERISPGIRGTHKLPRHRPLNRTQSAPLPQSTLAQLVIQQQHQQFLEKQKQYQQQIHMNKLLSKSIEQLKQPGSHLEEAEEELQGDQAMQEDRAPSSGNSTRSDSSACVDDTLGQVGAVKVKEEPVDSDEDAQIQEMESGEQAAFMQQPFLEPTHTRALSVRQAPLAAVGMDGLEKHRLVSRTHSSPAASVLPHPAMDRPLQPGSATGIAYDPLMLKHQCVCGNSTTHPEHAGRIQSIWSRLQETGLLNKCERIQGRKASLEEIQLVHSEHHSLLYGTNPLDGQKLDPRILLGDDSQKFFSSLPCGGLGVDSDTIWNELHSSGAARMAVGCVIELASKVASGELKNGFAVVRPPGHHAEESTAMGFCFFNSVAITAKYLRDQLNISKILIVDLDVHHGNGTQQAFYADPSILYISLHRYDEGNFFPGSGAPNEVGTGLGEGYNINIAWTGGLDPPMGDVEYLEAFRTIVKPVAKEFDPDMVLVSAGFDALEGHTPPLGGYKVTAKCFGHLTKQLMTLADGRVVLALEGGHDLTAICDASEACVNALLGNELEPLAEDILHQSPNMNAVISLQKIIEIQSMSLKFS

HCT-116 [7] = assay: Inhibition of HDAC8 foci formation in human HCT-116 cells measured after 20 hrs by DAPI staining based immunofluorescence assay; assay type: functional, cell-based; details: dose 0.5-8 µM
A549 [8] = assay: Inhibition of colony formation in SiRNA mediated HDAC8 knockdown human A549 cells assessed as decrease in cell proliferation at 2.5 to 10 uM measured after 7 to 10 days with media replenishment along with compound for every 3 days by crystal violet staining based analysis; assay type: functional; details: dose 2.5-10 µM, time 7-10 day
A549 [9] = assay: Induction of apoptosis in human A549 cells assessed as necrotic cells at 5 uM incubated for 72 hrs by annexin V-FITC staining based flow cytometry relative to control; assay type: functional
[10] = target: T1, Protein cereblon/Histone deacetylase 8 (Homo sapiens) (UniProt Q9BY41+Q96SW2); assay: Protac activity at CRBN/HDAC8 in human A549 cells assessed as degradation of HDAC8 at 200 nM measured after 20 hrs by Western blot analysis relative to control; assay type: cell-based
T1 sequence (Q96SW2 whole entry, looked up): as the sequence (Q96SW2 whole entry, looked up) above
T1 sequence (Q9BY41 whole entry, looked up): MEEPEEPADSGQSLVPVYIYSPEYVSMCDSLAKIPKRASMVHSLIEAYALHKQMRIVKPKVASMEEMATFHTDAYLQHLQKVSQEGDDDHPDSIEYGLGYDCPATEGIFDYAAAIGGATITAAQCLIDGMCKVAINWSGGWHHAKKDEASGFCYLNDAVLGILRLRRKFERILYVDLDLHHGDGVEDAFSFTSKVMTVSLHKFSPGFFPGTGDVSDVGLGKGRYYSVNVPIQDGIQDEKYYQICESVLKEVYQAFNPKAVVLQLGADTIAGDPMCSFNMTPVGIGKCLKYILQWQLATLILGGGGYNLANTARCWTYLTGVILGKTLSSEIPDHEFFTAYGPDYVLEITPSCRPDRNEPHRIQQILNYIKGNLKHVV

A549 [11] = assay: Induction of cell cycle arrest in human A549 cells assessed as accumulation of cells at G2/M phase at 20 uM measured after 72 hrs by propidium iodide staining based flow cytometry analysis; assay type: functional
HCT-116 [12] = assay: Inhibition of colony formation in SiRNA mediated HDAC8 knockdown human HCT-116 cells assessed as decrease in cell proliferation at 2.5 to 10 uM measured after 7 to 10 days with media replenishment along with compound for every 3 days by crystal violet staining based analysis; assay type: functional; details: dose 2.5-10 µM, time 7-10 day
A549 [13] = assay: Induction of apoptosis in human A549 cells assessed as early apoptotic cells at 10 uM incubated for 72 hrs by annexin V-FITC staining based flow cytometry (reference value: 0.099%); assay type: functional
[14] = target: T1, Protein cereblon/Histone deacetylase 8 (Homo sapiens); assay: Protac activity at CRBN/HDAC8 in human HeLa cells assessed as reduction in HDAC8 protein level at 0.1 to 10 uM by Western blot analysis; assay type: cell-based; details: dose 0.1-10 µM
A549 [15] = assay: Induction of apoptosis in human A549 cells assessed as downregulation of PCNA level at 1.25 to 20 uM measured after 48 hrs by Western blot analysis; assay type: functional, cell-based; details: dose 1.25-20 µM
[16] = target: T1, Protein cereblon/Histone deacetylase 8 (Homo sapiens); assay: Protac activity at CRBN/HDAC8 in human MDA-MB-231 cells assessed as decrease in SMAD3 protein level at 0.1 to 10 uM by Western blot analysis; assay type: cell-based; details: dose 0.1-10 µM
Jurkat = assay: Antiproliferative activity against human Jurkat cells at 0.1 to 10 uM measured after 72 hrs by CCK-8 method; assay type: functional, cell-based; details: dose 0.1-10 µM
A549 [17] = assay: Induction of apoptosis in human A549 cells assessed as early apoptotic cells at 5 uM incubated for 72 hrs by annexin V-FITC staining based flow cytometry (reference value: 0.099%); assay type: functional
A549 [18] = assay: Antitumor activity against human A549 cells xenografted in NOD/SCID mouse assessed as decrease in HDAC8 expression at 5 mg/kg, ip administered every 5 days measured at day 30 by […] analysis; assay type: functional, organism-based; details: time 30.0 day
A549 [19] = assay: Inhibition of DNA damage repair in human A549 cells assessed as decrease in gamma-H2AX level at 5 uM incubated for 24 hrs followed by irradiation for 4 hrs by immunofluorescence staining based analysis; assay type: functional, cell-based
A549 [20] = assay: Induction of apoptosis in human A549 cells assessed as early apoptotic cells at 20 uM incubated for 72 hrs by annexin V-FITC staining based flow cytometry (reference value: 0.099%); assay type: functional
A549 [21] = assay: Downregulation of COMMD1 in human A549 cells measured after 20 hrs by proteomic analysis; assay type: functional, cell-based
A549 [22] = assay: Induction of apoptosis in human A549 cells assessed as late apoptotic cells at 10 uM incubated for 72 hrs by annexin V-FITC staining based flow cytometry (reference value: 0.048%); assay type: functional
A549 [23] = assay: Downregulation of IL6ST in human A549 cells measured after 20 hrs by proteomic analysis; assay type: functional, cell-based
[24] = target: T1, Protein cereblon/Histone deacetylase 8 (Homo sapiens); assay: Protac activity at CRBN/HDAC8 in human A549 cells assessed as reduction in HDAC8 protein level by Western blot analysis; assay type: cell-based; details: dose 0.2-10 µM
A549 [25] = assay: Induction of apoptosis in human A549 cells assessed as viable cells at 20 uM incubated for 72 hrs by annexin V-FITC staining based flow cytometry (reference value: 99.9%); assay type: functional; details: read-out: Activity
HBEC3-KT = assay: Antiproliferative activity against human HBEC3-KT cells at 0.1 to 10 uM measured after 72 hrs by CCK-8 method; assay type: functional, cell-based; details: dose 0.1-10 µM
A549 [26] = assay: Induction of apoptosis in human A549 cells assessed as necrotic cells at 5 uM incubated for 48 hrs by annexin V FITC and propidium iodide based flow cytometry relative to control; assay type: functional
A549 [27] = assay: Antitumor activity against human A549 cells xenografted in NOD/SCID mouse at 5 mg/kg, ip administered every 5 days measured at day 30 followed by irradiation; assay type: functional, organism-based; details: time 30.0 day
A549 [28] = assay: Effect on NPTX1 gene in human A549 cells at 10 uM measured after 20 hrs by RNA sequencing analysis; assay type: functional, cell-based
[29] = target: T1, Protein cereblon/Histone deacetylase 8 (Homo sapiens); assay: Protac activity at CRBN/HDAC8 in human HCT-116 cells assessed as reduction in HDAC8 protein level at 0.1 to 10 uM by Western blot analysis; assay type: cell-based; details: dose 0.1-10 µM
[30] = target: Protein cereblon/Histone deacetylase 2 (Homo sapiens) (UniProt Q92769+Q96SW2); assay: Protac activity at CRBN/HDAC2 in human A549 cells assessed as reduction in HDAC2 protein level at 0.1 to 10 uM by Western blot analysis; assay type: cell-based; details: dose 0.1-10 µM
Protein cereblon/Histone deacetylase 2 (Homo sapiens), sequence (Q92769 whole entry, looked up): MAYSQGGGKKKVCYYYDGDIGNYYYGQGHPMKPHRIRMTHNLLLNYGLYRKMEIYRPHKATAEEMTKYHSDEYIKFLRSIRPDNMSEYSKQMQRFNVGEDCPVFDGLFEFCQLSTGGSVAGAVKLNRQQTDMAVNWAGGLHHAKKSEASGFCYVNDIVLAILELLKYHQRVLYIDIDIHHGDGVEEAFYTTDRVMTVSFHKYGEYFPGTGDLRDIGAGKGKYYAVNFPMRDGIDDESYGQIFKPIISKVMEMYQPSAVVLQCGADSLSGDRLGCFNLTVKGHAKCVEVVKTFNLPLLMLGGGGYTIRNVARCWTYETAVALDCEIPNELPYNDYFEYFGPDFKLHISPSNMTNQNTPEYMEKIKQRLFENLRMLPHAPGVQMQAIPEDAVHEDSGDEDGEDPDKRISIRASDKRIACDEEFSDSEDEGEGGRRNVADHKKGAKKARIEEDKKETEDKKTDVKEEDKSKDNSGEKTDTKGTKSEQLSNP
Protein cereblon/Histone deacetylase 2 (Homo sapiens), sequence (Q96SW2 whole entry, looked up): as the sequence (Q96SW2 whole entry, looked up) above

A549 [31] = assay: Induction of apoptosis in human A549 cells assessed as viable cells at 10 uM incubated for 72 hrs by annexin V-FITC staining based flow cytometry (reference value: 99.9%); assay type: functional; details: read-out: Activity
A549 [32] = assay: Synergistic antiproliferative activity against human A549 cells assessed as combination index measured after 72 hrs under irradiation by CCK-8 method; assay type: functional
A549 [33] = assay: Induction of apoptosis in human A549 cells incubated for 72 hrs by annexin V-FITC staining based flow cytometry; assay type: functional, cell-based; details: dose 1.25-20 µM

pIC50 (A549 [1]): 5.22
Activity [4]: inactive
Activity [5]: inactive
Activity [6]: inactive
Activity [10]: 39.7%
Activity [14]: Active
Activity [16]: Active
Activity [24]: Dose-Dependent Effect
Activity [29]: Active
Activity [30]: inactive
SMILES: O=C1CCC(N2C(=O)c3cccc(NCc4cn(CCOCCOc5ccc(Cn6ccc7ccc(C(=O)NO)cc76)cc5)nn4)c3C2=O)C(=O)N1 (stereo not given)
Activity (A549 [2]): Active
viability at 5 µM (A549 [3]): 77%
inhibition (HCT-116 [7]): Dose-Dependent Effect
inhibition (A549 [8]): Active
Activity (A549 [9]): 2.49%
Activity (A549 [11]): inactive
inhibition (HCT-116 [12]): Active
Activity (A549 [13]): 23.5%
Activity (A549 [15]): Active
Activity (Jurkat): Active
Activity (A549 [17]): 21.6%
Activity (A549 [18]): Active
inhibition (A549 [19]): Active
Activity (A549 [20]): 70.4%
Activity (A549 [21]): Active
Activity (A549 [22]): 22.2%
Activity (A549 [23]): Active
viability at 20 µM (A549 [25]): 6.84%
Activity (HBEC3-KT): Active
Activity (A549 [26]): 30%
Activity (A549 [27]): Active
Activity (A549 [28]): Active
viability at 10 µM (A549 [31]): 42.7%
CI (A549 [32]): 0.65
Activity (A549 [33]): Dose-Dependent Effect
